Experimental data: patent publication US20080125318A1, “Fungicidal Mixtures Containing Enestroburin and at Least One Active Substance from the Group of Azoles” (priority 2004, published 2008)
Read-outs that look alike come from different tables or passages of the source.

How the values were obtained:
Puccinia recondita = assay: Protective activity against Puccinia recondita on wheat (brown rust of wheat), greenhouse; type: in vivo, Puccinia recondita on wheat seedlings cultivar Kanzler; conditions: sprayed 5 days before inoculation, visual rating
Botrytis cinerea = assay: Activity against the gray mold pathogen Botrytis cinerea in the microtiter test; type: cell-based; conditions: day 7 after inoculation, absorption 405 nm
Phytophthora infestans = type: cell-based; conditions: day 7 after inoculation, absorption 405 nm

## OC(Cc1ccccc1Cl)(Cn1nc[nH]c1=S)C1(Cl)CC1 (centres unmarked) [prothioconazole (II-19), 2-[2-(1-chlorocyclopropyl)-3-(2-chlorophenyl)-2-hydroxypropyl]-2,4-dihydro[1,2,4]triazol-3-thione]
Puccinia recondita; 4 ppm single active compound
  Observed efficacy (%): 0%

## Cc1ccc(-c2c(Cl)nc(C#N)n2S(=O)(=O)N(C)C)cc1 [cyazofamid (II-30), 4-chloro-2-cyano-N,N-dimethyl-5-(4-methylphenyl)-1H-imidazole-1-sulfon-amide]
Botrytis cinerea; 1 ppm single active compound
  Observed efficacy (%): 0%
Botrytis cinerea; 4 ppm single active compound
  Observed efficacy (%): 0%

## CO/C=C(/C(=O)OC)c1ccccc1CO/N=C(C)/C=C/c1ccc(Cl)cc1 [enestroburin (I), methyl 2-{2-[3-(4-chlorophenyl)-1-methylallylideneaminooxymethyl]phenyl}-3-methoxyacrylate]
Botrytis cinerea; 4 ppm single active compound
  Observed efficacy (%): 48%
Puccinia recondita; 16 ppm single active compound
  Observed efficacy (%): 22%
Puccinia recondita; 63 ppm single active compound
  Observed efficacy (%): 44%
Phytophthora infestans; 2 ppm single active compound
  Observed efficacy (%): 70%
Phytophthora infestans; 4 ppm single active compound
  Observed efficacy (%): 82%
